How the values were obtained:
[1] = target: human α7 neuronal nicotinic receptor (Homo sapiens, UniProt P36544); assay: biochemical; type: binding; conditions: read-out: % inhibition N neuronal alpha-BGTX-sensitive (alpha 7) (antagonist radioligand)
[2] = target: human muscle-type nicotinic receptor (Homo sapiens, UniProt P02708+P07510+Q07001); assay: biochemical; type: binding; conditions: read-out: % inhibition N muscle-type (h) (antagonist radioligand)
[3] = relative to morphine; cited from earlier work
[4] = target: T1, human dopamine D1 receptor (Homo sapiens, UniProt P21728); assay: Human dopamine D1 receptor radioligand binding assay (antagonist radioligand); conditions: 1 μmmole test compound; 0.3 nM [3H]SCH 23390; transfected CHO cell membranes; one single experiment; 0.0003 µM
T1 construct: expressed in transfected cells; host or cells: CHO cells (membrane homogenates)
Experimental: Human Dopamine D1 Receptor (Antagonist Radioligand):
The purpose is to evaluate the affinity of compounds for the human dopamine D1 receptor in transfected CHO cells determined in a radioligand binding assay according to Zhou et al in Nature (1990) 347:76. The experimental protocol is as follows. Cell membrane homogenates (48 μg protein) are incubated for 60 minutes at 22° C. with 0.3 nM [^3H]SCH 23390 in the absence or presence of the test compound in a buffer containing 50 mM Tris-HCl (pH 7.4), 5 mM KCl, 5 mM MgCl2, 1.5 mM CaCl2 and 5 mM EDTA. Non-specific binding is determined in the presence of 1 μM SCH 23390. Following incubation, the samples are filtered rapidly under vacuum through glass fiber filters (GF/B, Packard) presoaked with 0.3% PEI and rinsed several times with ice-cold 50 mM Tris-HCl using a 96-sample cell harvester (Unifilter, Packard). The filters are dried then counted for radioactivity in a scintillation counter (Topcount, Packard) using a scintillation cocktail (Microscint 0, Packard). The results are expressed as a percent inhibition of the control radioligand specific binding. The standard reference compound is SCH 23390, which is tested in each experiment at several concentrations to obtain a competition curve from which its IC50 is calculated, and from which the % inhibition at 1 μM as indicated in the following table is obtained.

Sequence of human muscle-type nicotinic receptor (P07510 23-517): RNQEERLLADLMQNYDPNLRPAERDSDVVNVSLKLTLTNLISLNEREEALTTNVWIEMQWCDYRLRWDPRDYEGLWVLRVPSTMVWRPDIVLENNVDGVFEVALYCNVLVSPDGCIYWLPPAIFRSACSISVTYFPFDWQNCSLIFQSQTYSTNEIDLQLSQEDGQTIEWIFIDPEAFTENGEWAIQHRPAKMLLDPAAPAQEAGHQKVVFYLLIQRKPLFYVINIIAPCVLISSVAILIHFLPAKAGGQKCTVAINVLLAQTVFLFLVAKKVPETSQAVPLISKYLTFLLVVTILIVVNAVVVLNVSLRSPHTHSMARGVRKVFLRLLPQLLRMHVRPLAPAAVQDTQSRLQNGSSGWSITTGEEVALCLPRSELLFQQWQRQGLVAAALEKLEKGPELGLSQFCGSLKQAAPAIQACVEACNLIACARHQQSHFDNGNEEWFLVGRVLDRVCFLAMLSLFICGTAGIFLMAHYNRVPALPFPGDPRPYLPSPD
Sequence of human muscle-type nicotinic receptor (Q07001 22-517): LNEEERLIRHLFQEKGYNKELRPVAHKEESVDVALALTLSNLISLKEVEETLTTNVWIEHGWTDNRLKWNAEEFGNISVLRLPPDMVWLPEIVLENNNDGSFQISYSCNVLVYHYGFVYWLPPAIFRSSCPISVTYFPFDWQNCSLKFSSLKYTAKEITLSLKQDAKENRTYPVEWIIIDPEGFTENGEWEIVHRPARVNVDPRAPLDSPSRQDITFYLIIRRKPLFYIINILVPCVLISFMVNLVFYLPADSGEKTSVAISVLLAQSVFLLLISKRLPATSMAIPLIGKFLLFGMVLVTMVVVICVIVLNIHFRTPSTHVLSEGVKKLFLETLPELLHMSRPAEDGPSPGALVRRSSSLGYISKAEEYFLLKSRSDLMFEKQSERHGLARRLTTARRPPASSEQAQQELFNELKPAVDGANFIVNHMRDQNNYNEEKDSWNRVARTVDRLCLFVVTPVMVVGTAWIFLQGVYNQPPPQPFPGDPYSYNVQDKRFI
Sequence of human muscle-type nicotinic receptor (P02708 21-457): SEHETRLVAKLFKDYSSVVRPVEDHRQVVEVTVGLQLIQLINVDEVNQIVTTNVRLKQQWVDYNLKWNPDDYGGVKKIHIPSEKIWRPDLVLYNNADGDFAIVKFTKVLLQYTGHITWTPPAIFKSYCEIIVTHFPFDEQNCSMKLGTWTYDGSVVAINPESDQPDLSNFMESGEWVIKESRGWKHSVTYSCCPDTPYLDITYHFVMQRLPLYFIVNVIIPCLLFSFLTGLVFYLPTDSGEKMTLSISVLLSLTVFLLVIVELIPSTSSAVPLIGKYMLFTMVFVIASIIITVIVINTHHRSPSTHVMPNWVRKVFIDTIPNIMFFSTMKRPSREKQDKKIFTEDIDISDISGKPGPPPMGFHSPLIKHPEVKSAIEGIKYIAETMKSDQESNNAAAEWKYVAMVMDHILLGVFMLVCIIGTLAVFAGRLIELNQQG
Sequence of human muscle-type nicotinic receptor (P11230 24-501, further chain): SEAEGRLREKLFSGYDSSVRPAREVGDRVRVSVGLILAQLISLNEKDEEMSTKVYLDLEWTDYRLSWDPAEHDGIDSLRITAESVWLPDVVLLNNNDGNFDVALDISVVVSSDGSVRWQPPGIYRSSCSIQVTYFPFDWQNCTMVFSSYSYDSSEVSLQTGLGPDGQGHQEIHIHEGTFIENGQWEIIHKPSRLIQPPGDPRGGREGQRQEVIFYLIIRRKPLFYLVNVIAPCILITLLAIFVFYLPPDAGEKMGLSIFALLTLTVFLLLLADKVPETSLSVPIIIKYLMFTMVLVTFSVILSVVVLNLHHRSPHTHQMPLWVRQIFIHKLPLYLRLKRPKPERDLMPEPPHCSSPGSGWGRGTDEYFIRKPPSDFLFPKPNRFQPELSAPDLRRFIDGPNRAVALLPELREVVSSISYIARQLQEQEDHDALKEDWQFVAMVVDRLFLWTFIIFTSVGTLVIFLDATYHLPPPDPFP
T1 sequence (P21728 whole entry): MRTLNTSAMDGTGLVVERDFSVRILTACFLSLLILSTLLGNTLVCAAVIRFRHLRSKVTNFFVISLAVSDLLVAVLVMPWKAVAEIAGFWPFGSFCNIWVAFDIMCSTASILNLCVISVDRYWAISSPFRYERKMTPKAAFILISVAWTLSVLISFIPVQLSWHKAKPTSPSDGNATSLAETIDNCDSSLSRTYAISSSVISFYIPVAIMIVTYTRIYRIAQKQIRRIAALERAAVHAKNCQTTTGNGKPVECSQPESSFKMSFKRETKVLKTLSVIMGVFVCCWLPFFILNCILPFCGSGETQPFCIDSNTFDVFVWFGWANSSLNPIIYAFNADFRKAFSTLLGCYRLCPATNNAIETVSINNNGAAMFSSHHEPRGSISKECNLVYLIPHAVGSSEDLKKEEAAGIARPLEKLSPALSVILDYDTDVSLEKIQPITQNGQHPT
Sequence of human α7 neuronal nicotinic receptor (P36544 23-502): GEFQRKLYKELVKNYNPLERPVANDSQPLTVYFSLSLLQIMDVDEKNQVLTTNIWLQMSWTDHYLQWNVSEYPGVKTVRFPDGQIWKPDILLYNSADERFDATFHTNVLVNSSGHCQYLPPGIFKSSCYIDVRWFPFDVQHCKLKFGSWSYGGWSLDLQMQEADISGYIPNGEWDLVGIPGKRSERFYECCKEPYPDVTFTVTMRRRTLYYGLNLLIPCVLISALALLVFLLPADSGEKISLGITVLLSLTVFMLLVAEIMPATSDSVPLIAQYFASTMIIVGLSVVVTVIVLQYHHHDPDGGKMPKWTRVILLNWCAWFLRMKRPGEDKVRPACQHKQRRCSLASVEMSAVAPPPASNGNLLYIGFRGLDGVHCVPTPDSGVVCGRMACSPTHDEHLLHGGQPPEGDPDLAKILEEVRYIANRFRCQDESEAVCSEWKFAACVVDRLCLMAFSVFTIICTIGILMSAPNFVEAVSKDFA

## CCN1CCC2CC1(C(O)c1cccnc1)C2 (stereo not shown) [Compound 11]
[1]
  inhibition at 50 pM: -1%
[2]
  inhibition at 0.0005 µM: 17%

## Clc1ccc(C2CC3CCC2N3)cn1 (stereo not shown) [epibatidine]
[3]
  analgesic potency higher than that of morphine: about 200 fold

## CCN1CCC2CC1(C(O)c1cccnc1)C2 (stereo not shown) [Compound 19a]
[4]
  % inhibition D1 (h) (antagonist radioligand): 9%

— US8809365B2, “1-substituted 2-azabicyclo [3.1.1] heptyl derivatives useful as nicotinic acetylcholine receptor modulators for treating neurologic disorders” (Universiteit Gent, priority 2009, dated 2014)
